Test results taken from patent publication US7279576B2 (Deciphera Pharmaceuticals, LLC, priority 2002, dated 2007).

Molecular target: T1, nonphosphorylated Abl kinase (Homo sapiens, UniProt P00519)
T1 construct: purchased deCode Abl-2
Assay: Abl kinase assay (continuous spectrophotometric, pyruvate kinase/lactate dehydrogenase coupled)
Assay type: biochemical
Details: for inhibition at 10 µM: read-out: % Inhi @ 10 uM
Method: A continuous spectrophotometric kinase assay is used, wherein the production of adenosine diphosphate is coupled to the oxidation of NADH and measured as a reduction in absorbance at 340 nm. For details see: Barker, S. C. et al, Biochemistry (1995) 34:14843; and Schindler, T. et al, Science (2000) 289:1938.
The reaction mixture (200 μl) contained Abl kinase (3.7 nM. Abl-2 from deCode), peptide substrate ([…], 0.5 mM), ATP (0.5 mM), MgCl2 (5 mM), pyruvate kinase (16 units), lactate dehydrogenase (26 units), phosphoenol pyruvate (1 mM), and NADH (0.28 mM) in 100 mM Tris buffer, pH 7.5. The reaction was initiated by adding ATP. The absorption at 340 nm was monitored continuously for 3 to 4 hours at 30° C. on Polarstar Optima plate reader (BMG). Under these conditions, a turn over number (kcat) of 1.4 s^−1 was obtained for the preparation of Abl kinase, which is similar to that (1.7 s^−1) reported for the nonphosphorylated enzyme (Brasher and Van Etten, JBC (2000) 275, 35631-35637). No autophosphorylation of Abl was observed under these conditions since the rate is constant throughout the entire reaction time and presumably because the concentration of the enzyme used is below the critical level (˜10 nM) needed for the autophosphorylation (Brasher and Van Etten, JBC (2000) 275, 35631-35637).
Percentage of inhibition in the presence of an inhibitor was obtained by comparison of reaction rate (or slope) with that of a control. IC50 value was calculated from a series of % inhibition values determined at a range of concentrations of the inhibitor using Prism.

T1 sequence (P00519 whole entry): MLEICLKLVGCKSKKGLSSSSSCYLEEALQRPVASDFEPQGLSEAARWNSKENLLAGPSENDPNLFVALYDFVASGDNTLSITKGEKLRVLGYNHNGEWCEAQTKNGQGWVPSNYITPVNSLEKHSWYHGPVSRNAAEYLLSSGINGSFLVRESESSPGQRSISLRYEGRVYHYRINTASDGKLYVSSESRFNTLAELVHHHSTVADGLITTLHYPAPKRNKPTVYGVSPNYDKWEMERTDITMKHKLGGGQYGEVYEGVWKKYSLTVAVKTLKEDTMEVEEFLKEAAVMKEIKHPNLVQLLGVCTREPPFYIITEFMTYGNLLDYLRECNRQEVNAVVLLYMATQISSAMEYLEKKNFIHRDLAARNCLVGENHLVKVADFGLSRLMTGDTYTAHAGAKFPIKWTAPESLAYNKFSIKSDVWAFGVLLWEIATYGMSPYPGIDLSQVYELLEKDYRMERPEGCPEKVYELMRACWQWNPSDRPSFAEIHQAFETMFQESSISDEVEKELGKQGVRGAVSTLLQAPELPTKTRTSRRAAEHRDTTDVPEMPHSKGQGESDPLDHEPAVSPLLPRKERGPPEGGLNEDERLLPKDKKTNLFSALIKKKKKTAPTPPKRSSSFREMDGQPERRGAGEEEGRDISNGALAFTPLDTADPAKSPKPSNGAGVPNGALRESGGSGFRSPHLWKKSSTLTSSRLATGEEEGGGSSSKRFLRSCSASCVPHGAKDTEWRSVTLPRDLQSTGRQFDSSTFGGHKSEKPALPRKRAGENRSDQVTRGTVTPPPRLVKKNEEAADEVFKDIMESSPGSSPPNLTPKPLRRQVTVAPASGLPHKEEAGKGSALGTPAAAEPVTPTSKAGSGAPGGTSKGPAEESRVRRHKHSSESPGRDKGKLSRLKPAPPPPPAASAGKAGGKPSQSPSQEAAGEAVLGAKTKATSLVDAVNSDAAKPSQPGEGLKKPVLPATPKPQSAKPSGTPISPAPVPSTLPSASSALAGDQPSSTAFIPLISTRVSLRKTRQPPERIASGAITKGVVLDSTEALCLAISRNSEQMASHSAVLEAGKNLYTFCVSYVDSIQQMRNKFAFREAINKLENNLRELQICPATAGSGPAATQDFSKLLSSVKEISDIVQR

Compound | inhibition at 10 µM [%] | IC50 [µM]
Cc1ccc(NC(=O)c2ccc(CNS(=O)(=O)NC(=O)N3CCCC3)cc2)cc1Nc1ncccn1 [Example 2] | 9 | –
Cc1ccc(NC(=O)c2ccc(CNS(=O)(=O)NC(=O)N3CCCC3)cc2)cc1Nc1nccc(-c2ccccc2)n1 [Example 1] | 10 | –
Cc1ccc(NC(=O)c2ccc(Cn3sc(=O)n(-c4ccccc4)c3=O)cc2)cc1Nc1nccc(-c2ccccc2)n1 [Example 9, N-(3-(4-phenylpyrimidin-2-ylamino)-4-methylphenyl)-4-((3,5-dioxo-4-phenyl-1,2,4-thiadiazolidin-2-yl)methyl)benzamide] | 42 | –
Cc1ccc(NC(=O)c2ccc(C(=O)N3C(=O)OC[C@@H]3c3ccccc3)cc2)cc1Nc1nccc(-c2cccnc2)n1 [Example 19, L-4-(2-oxo-4-phenyl-oxazolidine-3-carbonyl)-N-[4-methyl-3-(4-pyridin-3-yl-pyrimidin-2-ylamino)-phenyl]benzamide] | 75 | 4
Cc1ccc(NC(=O)c2ccc(CN3CC(=O)N(C)C3=O)cc2)cc1Nc1ncccn1 [Example 5, 4-((3-methyl-2,4-dioxoimidazolidin-1-yl)methyl)-N-(4-methyl-3-(pyrimidin-2-ylamino)phenyl)benzamide] | 9 | –
Cc1ccc(NC(=O)c2ccc(Cn3c(=O)[nH]n(C)c3=O)cc2)cc1Nc1ncccn1 [Example 21, 4-((1-methyl-3,5-dioxo-1,2,4-triazolidin-4-yl)methyl)-N-(4-methyl-3-(pyrimidin-2-ylamino)phenyl)benzamide] | 12 | –
Cc1ccc(NC(=O)c2ccc(CN3CC(=O)NS3(=O)=O)cc2)cc1Nc1nccc(-c2ccccc2)n1 [Example 23] | 10 | –
Cc1ccc(NC(=O)c2ccc(C(=O)N3C(=O)OC[C@H]3c3ccccc3)cc2)cc1Nc1nccc(-c2cccnc2)n1 [Example 18, D-4-(2-oxo-4-phenyl-oxazolidine-3-carbonyl)-N-[4-methyl-3-(4-pyridin-3-yl-pyrimidin-2-ylamino)-phenyl]benzamide] | 70 | 3
Cc1ccc(NC(=O)c2ccc(CN3CCS(=O)(=O)CC3)cc2)cc1Nc1nccc(N2CCOCC2)n1 [Example 15, 4-(((4,4-dioxothiomorpholinomethyl)1)methyl)-N-(4-methyl-3-(4-morpholinopyrimidin-2-ylamino)phenyl)benzamide] | 7 | –
Cc1ccc(NC(=O)c2ccc(CN3CC(=O)NS3(=O)=O)cc2)cc1Nc1nccc(-c2cccnc2)n1 [Example 10] | 16 | –
Cc1ccc(NC(=O)c2ccc(C(=O)N3C(=O)OC[C@@H]3c3ccccc3)cc2)cc1Nc1nccc(-c2ccccc2)n1 [Example 17, L-4-(2-oxo-4-phenyl-oxazolidine-3-carbonyl)-N-(4-methyl-3-(4-phenylpyrimidin-2-ylamino)phenyl)benzamide] | 18 | –
Cc1ccc(NC(=O)c2ccc(C(=O)N3C(=O)OC[C@H]3c3ccccc3)cc2)cc1Nc1nccc(-c2ccccc2)n1 [Example 16, D-4-(2-oxo-4-phenyl-oxazolidine-3-carbonyl)-N-(4-methyl-3-(4-phenylpyrimidin-2-ylamino)phenyl)benzamide] | 9 | –
Cc1ccc(NC(=O)c2ccc(CNC(=O)NS(=O)(=O)N3CCCC3)cc2)cc1Nc1nccc(-c2ccccc2)n1 [Example 3] | 15 | –
Cc1ccc(NC(=O)c2ccc(CN3C(=O)CNS3(=O)=O)cc2)cc1Nc1nccc(-c2ccccc2)n1 [Example 12, N-[4-Methyl-3-(4-phenyl-pyrimidin-2-ylamino)-phenyl]-4-(1,1,3-trioxo-[1,2,5]thiadiazolidin-2-ylmethyl)-benzamide] | 52 | –
CNC(=O)CN(CC(=O)NC)C(=O)c1ccc(C(=O)Nc2ccc(C)c(Nc3ncccn3)c2)cc1 [Example 7, N^1,N^1-bis((methylcarbamoyl)methyl)-N^4-(4-methyl-3-(pyrimidin-2-ylamino)phenyl)terephthalamide] | 9 | –
CNC(=O)CN(CC(=O)NC)C(=O)c1ccc(C(=O)Nc2ccc(C)c(Nc3nccc(-c4ccccc4)n3)c2)cc1 [Example 8, N^1,N^1-bis((methylcarbamoyl)methyl)-N^4-(3-(4-phenylpyrimidin-2-ylamino)4-methylphenyl)terephthalamide] | 20 | –
Cc1ccc(NC(=O)c2ccc(CNC(=O)NS(=O)(=O)N3CCCC3)cc2)cc1Nc1ncccn1 [Example 4] | 24 | –
Cc1ccc(NC(=O)c2ccc(CN3CCS(=O)(=O)CC3)cc2)cc1Nc1ncccn1 [Example 13, 4-(((4,4-dioxothiomorpholinomethyl)1)methyl)-N-(4-methyl-3-(pyrimidin-2-ylamino)phenyl)benzamide] | 31 | –
Cc1ccc(NC(=O)c2ccc(CN3CC(=O)N(C)C3=O)cc2)cc1Nc1nccc(-c2ccccc2)n1 [Example 6, N-(3-(4-phenylpyrimidin-2-ylamino)-4-methylphenyl)-4-((3-methyl-2,4-dioxoimidazolidin-1-yl)methyl)benzamide] | 13 | –
